# From patent US20020128231A1 (priority 2000, published 2002)
# How the values were obtained:
# [1] = target: P-glycoprotein (Homo sapiens, UniProt P08183); assay: Rhodamine 123 transport assay across HCT-8 cell monolayers; conditions: compound 10 μM, Rh123 15 μM, HCT-8 cells; for inhibition at 10 μM: human, HCT-8 cell monolayers in Transwell dishes, probe Rhodamine 123 (15 μM), % Inhibition of R123 Transport
# Experimental: The human ileocecal adenocarcinoma cell line HCT-8 was grown in RPMI-1640 medium supplemented with 10% horse serum, 1 mM sodium pyruvate and 0.01 mg/ml gentamicin. All cells were maintained in a humidified atmosphere with 5% CO2 at 37° C.
# Rhodamine 123 transport was examined as previously described (Hunter J. et al., Simmons, Br. J. Cancer, 64: 437444 (1991); Kim A. E. et al., J. Pharm. Exp. Ther., 286: 1439-1445 (1998)) using HCT-8 cells. Particularly, cells were grown in 6 well Corning Transwell dishes until a tight monolayer was formed. Rh123 was added at a final concentration of 15 μM to the basal or apical compartments and 200 μl samples were taken at the indicated times from the opposite chamber. Fluorescence of Rh123 in the media samples was measured using a fluorescence plate reader with an excitation wavelength of 485 nm and an emission wavelength of 530 nm.
# [2] = test system: MDR1-expressing NIH 3T3 cells; assay: Cytotoxicity (MTT) assay: modulation of drug cytotoxicity in multidrug resistant cells; conditions: for Modulation of Drug Resistance (percentage increase in doxorubicin cytotoxicity in the presence of the compounds versus in their absence): compound 5 μM, 50 nM doxorubicin, 72 hours, MTT
# Experimental: Cytotoxicity assays were performed with many of the compounds of Formula I to verify their usefulness as inhibitors of P-gp.
# Parental NIH3T3 Swiss mouse embryo cell line was obtained from American Type Culture Collection and was grown in Dulbecco's Modified Eagles Medium supplemented with 4.5 g/L glucose, 10% fetal bovine serum, 2 mM L-glutamine, and 0.01 mg/ml gentamicin. […] All cells were maintained in a humidified atmosphere with 5% CO2 at 37° C.
# Parental and MDR1-expressing NIH 3T3 cells were plated at a density of 2.5-3.0×10^3 cells/well in 96-well microtiter plates and were exposed to 50 nM of doxoriubicin, 7.5 nM vinblastine, 75 nM colchicine or 300 nM paclitaxel for 72 hours. Cell viability was determined with the colorimetric MTT (3-(4,5-dimethylthiazol-2-yl)-2,5-diphenyl tetrazolium) assay as previously described (Mosmann T., J. Immunol. Methods, 65: 55-63 (1983); Hansen M. B. et al., J. Immunol. Methods, 119: 203-210 (1989)) and the absorbance was measured at 570 nm.
# Chain of P-glycoprotein (P08183 whole entry): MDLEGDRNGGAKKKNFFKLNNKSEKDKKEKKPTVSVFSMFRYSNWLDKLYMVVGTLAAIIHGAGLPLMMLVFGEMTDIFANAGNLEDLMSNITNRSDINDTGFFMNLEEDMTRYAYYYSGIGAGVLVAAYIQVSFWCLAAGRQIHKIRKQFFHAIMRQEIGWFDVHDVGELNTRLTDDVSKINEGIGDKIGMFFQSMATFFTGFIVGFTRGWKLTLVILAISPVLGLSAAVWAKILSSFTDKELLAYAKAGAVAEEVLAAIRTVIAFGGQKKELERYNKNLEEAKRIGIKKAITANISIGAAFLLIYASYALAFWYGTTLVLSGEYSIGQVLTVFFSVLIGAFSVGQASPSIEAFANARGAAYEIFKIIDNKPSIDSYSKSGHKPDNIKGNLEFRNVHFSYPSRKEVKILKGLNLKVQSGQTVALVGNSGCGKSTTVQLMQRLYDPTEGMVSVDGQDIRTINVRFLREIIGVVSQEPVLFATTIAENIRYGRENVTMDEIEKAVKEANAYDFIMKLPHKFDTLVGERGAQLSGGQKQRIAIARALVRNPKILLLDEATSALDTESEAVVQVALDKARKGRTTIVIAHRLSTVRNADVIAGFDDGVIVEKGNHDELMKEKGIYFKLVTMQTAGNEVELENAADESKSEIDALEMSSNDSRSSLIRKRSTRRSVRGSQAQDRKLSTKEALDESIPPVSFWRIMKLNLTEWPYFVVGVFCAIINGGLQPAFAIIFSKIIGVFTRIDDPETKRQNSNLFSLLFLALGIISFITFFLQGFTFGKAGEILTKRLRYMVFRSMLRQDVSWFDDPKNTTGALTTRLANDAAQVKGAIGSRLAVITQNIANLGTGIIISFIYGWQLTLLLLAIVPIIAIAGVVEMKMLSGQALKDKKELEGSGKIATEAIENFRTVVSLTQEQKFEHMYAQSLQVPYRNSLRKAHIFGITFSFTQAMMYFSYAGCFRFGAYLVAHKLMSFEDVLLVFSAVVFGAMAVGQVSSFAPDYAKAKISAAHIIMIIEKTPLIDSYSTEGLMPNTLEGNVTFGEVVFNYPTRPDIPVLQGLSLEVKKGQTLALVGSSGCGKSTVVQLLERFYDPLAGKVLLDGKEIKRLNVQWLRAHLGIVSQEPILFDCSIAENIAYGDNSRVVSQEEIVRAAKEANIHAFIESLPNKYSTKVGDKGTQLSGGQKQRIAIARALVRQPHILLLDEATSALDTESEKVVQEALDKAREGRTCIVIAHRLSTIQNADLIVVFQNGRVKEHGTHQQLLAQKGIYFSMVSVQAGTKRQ
Structure (SMILES),inhibition at 10 μM [1] [%],Modulation of Drug Resistance (percentage increase in doxorubicin cytotoxicity in the presence of the compounds versus in their absence) [2] [%],"dose responsive sensitization of multidrug resistant cells to doxorubicin (FIG. 5) ([2]; doxorubicin 0-750 nM, compound 50-1000 nM)","dose response inhibition of P-glycoprotein in the presence of vinblastine (FIG. 6) ([2]; vinblastine 0-100 nM, compound 50-1000 nM)",% Inhibition of R123 Transport [1] [%]
"CCCCCCN(CCCCCC)C(=O)CC1c2cc(OC)c(OC)cc2C(c2ccc(OC)c(OC)c2)C1C(=O)N(CCCCCC)CCCCCC (centres unmarked) [AV-193, 1-(3,4-dimethoxyphenyl)-3-dihexylcarbamoylmethyl-5,6-dimethoxy-indan-2-carboxylic acid dihexyl amide]",11.8,25.20,–,–,–
"COCC1C(CCN2CCN(c3ccccc3)CC2)c2cc(OC)c(OC)cc2C1c1ccc(OC)c(OC)c1 (centres unmarked) [AV-198, 1-{-2-[3-(3,4-dimethoxyphenyl)-5,6-dimethoxy-2-methoxymethyl-indan-1-yl]-ethyl}-4-phenylpiperazine]",84.7,58.65,–,–,–
"COCC1C(CCN2CCN(c3ccc(OC)cc3)CC2)c2cc(OC)c(OC)cc2C1c1ccc(OC)c(OC)c1 (centres unmarked) [AV-199, 1-{-2-[3-(3,4-dimethoxyphenyl)-5,6-dimethoxy-2-methoxymethyl-indan-1-yl]-ethyl}-4-(4-methoxyphenyl)-piperazine]",84,61.63,–,–,–
"COCC1C(CCN2CCN(C(=O)OCc3ccccc3)CC2)c2cc(OC)c(OC)cc2C1c1ccc(OC)c(OC)c1 (centres unmarked) [AV-200, 4-{2-[3-(3,4-dimethoxyphenyl)-5,6-dimethoxy-2-methoxymethyl-indan-1-yl]-ethyl}-piperazine-1-carboxylic acid benzyl ester]",86.4,61.40,–,–,–
"COCC1C(CCN2CCN(c3ccc(F)cc3)CC2)c2cc(OC)c(OC)cc2C1c1ccc(OC)c(OC)c1 (centres unmarked) [AV-201, 1-{-2-[3-(3,4-dimethoxyphenyl)-5,6-dimethoxy-2-methoxymethyl-indan-1-yl]-ethyl}-4-(4-fluorophenyl)-piperazine]",83.8,66.44,–,–,–
"COCC1C(CCN2CCN(c3ccccc3OC)CC2)c2cc(OC)c(OC)cc2C1c1ccc(OC)c(OC)c1 (centres unmarked) [AV-202, 1{-2-[3-(3,4-dimethoxyphenyl)-5,6-dimethoxy-2-methoxymethyl-indan-1-yl]-ethyl}-4-(2-methoxyphenyl)-piperazine]",88.4,59.68,dose responsive sensitization,dose response data inhibition of P-glycoprotein,–
COCC1C(CCN2CCN(c3ccc(C(C)=O)cc3)CC2)c2cc(OC)c(OC)cc2C1c1ccc(OC)c(OC)c1 (centres unmarked) [AV-203],–,84.65,–,–,77.9
"CCOc1ccccc1N1CCN(C(=O)CC2c3cc(OC)c(OCc4ccccc4)cc3C(c3ccc(OCc4ccccc4)c(OC)c3)C2C(=O)N2CCN(c3ccccc3OCC)CC2)CC1 (centres unmarked) [AV-205, 2-{5-benzyloxy-3-(4-benzyloxy-3-methoxyphenyl)-2-{4-(2-ethoxyphenyl)-piperazine-1-carbonyl}-6-methoxy-indan-1-yl}-1-{4-(2-ethoxyphenyl)-piperazin-1-yl]-ethanone]",53.6,35.56,–,–,–
"CCOc1ccccc1N1CCN(C(=O)CC2c3cc(OC)c(O)cc3C(c3ccc(O)c(OC)c3)C2C(=O)N2CCN(c3ccccc3OCC)CC2)CC1 (centres unmarked) [AV-206, 2-[2-[4-(2-ethoxyphenyl)-piperazine-1-carbonyl]-5-hydroxy-3-(4-hydroxy-3-methoxyphenyl)-6-methoxy-indan-1-yl]-1-[4(2-ethoxyphenyl)-piperazin-1-yl]-ethanone]",88.2,54.78,–,–,–
"CCOc1ccc(C2c3cc(OCC)c(OC)cc3C(CC(=O)N3CCN(c4ccccc4OCC)CC3)C2C(=O)N2CCN(c3ccccc3OCC)CC2)cc1OC (centres unmarked) [AV-207, 2-{5-ethoxy-3-(4-ethoxy-3-methoxyphenyl)-2-[4-(2-ethoxyphenyl)-piperazine-1-carbonyl]-6-methoxy-indan-1-yl}-1-[4-(2-ethoxyphenyl)-piperazin-1-yl]-ethanone]",89.7,55.08,–,–,–
"CCCCOc1ccc(C2c3cc(OCCCC)c(OC)cc3C(CC(=O)N3CCN(c4ccccc4OCC)CC3)C2C(=O)N2CCN(c3ccccc3OCC)CC2)cc1OC (centres unmarked) [AV-208, 2-{5-butoxy-3-(4-butoxy-3-methoxyphenyl)-2-[4-(2-ethoxyphenyl)-piperazine-1-carbonyl]-6-methoxy-indan-1-yl}-1-[4-(2-ethoxyphenyl)-piperazin-1-yl]-ethanone]",86.1,51.78,–,–,–
"CCCCCCCCCCOc1ccc(C2c3cc(OCCCCCCCCCC)c(OC)cc3C(CC(=O)N3CCN(c4ccccc4OCC)CC3)C2C(=O)N2CCN(c3ccccc3OCC)CC2)cc1OC (centres unmarked) [AV-209, 2-{5-decyloxy-3-(4-decyloxy-3-methoxyphenyl)-2-[4-(2-ethoxyphenyl)-piperazine-1-carbonyl]-6-methoxy-indan-1-yl}-1-[4-(2-ethoxyphenyl)-piperazin-1-yl]-ethanone]",47.3,1.16,–,–,–
"COc1ccc(C2c3cc(OC)c(OC)cc3C(CCNS(=O)(=O)c3ccccc3)C2CNS(=O)(=O)c2ccccc2)cc1OC (centres unmarked) [AV-223, N-{2-[(2-N-methyl)-benzenesulfonamide-3-(3,4-dimethoxyphenyl)-5,6-dimethoxy-indan-1-yl}-ethyl}-benzensulfonamide]",–,36.55,–,–,74.50
"COc1ccc(C2c3cc(OC)c(OC)cc3C(CCNC(=O)NCc3ccccc3)C2CNC(=O)NCc2ccccc2)cc1OC (centres unmarked) [AV-234, 10-benzyl-3-{2-[2-(3-benzyl-ureidomethyl)-3-(3,4-dimethoxyphenyl)-5,6-dimethoxy-indan-1-yl]-ethyl}-urea]",–,12.50,–,–,37.58
"CCOc1ccccc1N1CCN(C(=O)CC2c3cc(OC)c(OC)cc3C(c3ccc(OC)c(OC)c3)C2C(=O)O)CC1 (centres unmarked) [AV-250, 1-(3,4-Dimethoxy-phenyl)-3-{2-[4-(2-ethoxy-phenyl)-piperazin-1-yl]-2-oxo-ethyl}-5,6-dimethoxy-indan-2-carboxylic acid]",55.9,−7.1,–,–,–
"CCCCCOc1ccc(C2c3cc(OCCCCC)c(OC)cc3C(CC(=O)N3CCN(c4ccccc4OCC)CC3)C2C(=O)N2CCN(c3ccccc3OCC)CC2)cc1OC (centres unmarked) [AV-252, 2-[2-[4-(2-Ethoxy-phenyl)-piperazine-1-carbonyl]-6-methoxy-3-(3-methoxy-4-pentyloxy-phenyl)-5-pentyloxy-indan-1-yl]-1-[4-(2-ethoxy-phenyl)-piperazin-1-yl]ethanone]",64.2,−0.5,–,–,–
CCOc1ccc(C2c3cc(OCC)c(OCC)cc3C(CC(=O)N3CCN(c4ccccc4OCC)CC3)C2C(=O)N2CCN(c3ccccc3OCC)CC2)cc1OCC (centres unmarked) [AV-253],–,19.8,–,–,92.03
"CCCOc1ccc(C2c3cc(OCCC)c(OCCC)cc3C(CC(=O)N3CCN(c4ccccc4OCC)CC3)C2C(=O)N2CCN(c3ccccc3OCC)CC2)cc1OCCC (centres unmarked) [AV-254, 2-{3-(3,4-Dipopoxy-phenyl)-2-[4-(2-ethoxy-phenyl)-piperazine-1-carbonyl]-5,6-dipropoxy-indan-1-yl}-1-[4-(2-ethoxy-phenyl)-piperazin-1-yl]-ethanone]",–,4.1,–,–,18.70
"CCCCOc1ccc(C2c3cc(OCCCC)c(OCCCC)cc3C(CC(=O)N3CCN(c4ccccc4OCC)CC3)C2C(=O)N2CCN(c3ccccc3OCC)CC2)cc1OCCCC (centres unmarked) [AV-255, 2-{3-(3,4-Dibutoxy-phenyl)-2-[4-(2-ethoxy-phenyl)-piperazine-1-carbonyl]-5,6-dibutoxy-indan-1-yl}-1-[4-(2-ethoxy-phenyl)-piperazin-1-yl]-ethanone]",96,6.7,–,–,–
CCOc1ccccc1N1CCN(C(=O)CC2c3cc(OC)c(OC)cc3C(c3ccc(OC)c(OC)c3)C2C(=O)N2CCN(C)CC2)CC1 (centres unmarked) [AV-256],–,8.7,–,–,75.61
"CCOc1ccccc1N1CCN(C(=O)CC2c3cc(OC)c(OC)cc3C(c3ccc(OC)c(OC)c3)C2C(=O)N(C)C)CC1 (centres unmarked) [AV-257, 1-(3,4-Dimethoxy-phenyl)-3-{2-[4-(2-ethoxy-phenyl)-piperazin-1-yl]-2-oxo-ethyl}-5,6-dimethoxy-indan-2-carboxylic acid dimethylamide]",80.4,8.7,–,–,–
